Here are results for one molecule from patent publication US6702803B2, “Multi-step drug dosage forms” (Delsys Pharmaceutical Corporation, priority 2000, dated 2004).

The data set in a line: Compatibility study of Drug A with polymeric films (chromatographic purity on storage). Particulars: HPMC film, HPMC/HPC blend film, polyvinyl alcohol film; 25°C/60% RH, 40°C/75% RH (closed and open bottle), 50°C; 2 to 12 weeks. The format is physicochemical. The protocol: Compatibility studies were conducted to assess the compatibility of Drug A with several polymeric films, to determine an appropriate material for the substrate. The films studied were an HPMC film, an. HPMC/HPC blend film, and a polyvinyl alcohol film. Each film was cut into pieces approximately 0.5 cm square and a piece of each film was placed into a glass bottle. Approximately 500 mg of Drug A was added to each bottle. The bottles were closed with Teflon lined plastic caps. Bottles of Drug A and each of the films separately were prepared and used as controls. The controls and drug/polymer samples were stored in a closed chamber under the following conditions, and tested at the indicated time periods: A) 25° C.±2° C.; 60% RH±5%; tested at 2,4 and 12 weeks; B) 40° C.±2° C.; 75% RH±5%; tested at 2,4 and 12 weeks; C) 40° C.±2 S^C; 75% RH±5%, open bottle; tested at 2, 4 and 12 weeks; and D) 50° C.±2*C.; no humidity control; tested at 2,4, and 8 weeks. At each time point, the samples were tested for chromatographic purity. […] Several dosage forms were made, as outlined in Table 1. “ER” refers to the extended release portion. “HPMC, HPC” refers to a hydroxypropyrmethyl cellulose, hydroxypropyl cellulose copolymer. “PEO” refers to a polyethylene oxide polymer, “HPMC, PEG” refers to hydroxypropylmethyl cellulose containing polyethylene glycol (PEG) plasticizer.

For the molecule `Cc1nccn1CC1CCc2c(c3ccccc3n2C)C1=O` (stereo not shown) [Drug A, 1,2,3,9-tetrahydro-9-methyl-3-[(2-methyl-1H-imidazol-1-yl)methyl]-4H-carbazol-4-one], the “change in chromatographic purity of Drug A stored with polymer films, compared to control samples” value is on record as “no changes in purity”.
